From patent US20180044734A1, “COMPOSITION FOR DIAGNOSING SKIN DAMAGE CAUSED BY FINE DUST, AND COMPOSITION COMPRISING GALANGIN AS ACTIVE INGREDIENT” (AMOREPACIFIC CORPORATION, priority 2015, published 2018)

Legend:
[1] = tested on: microdust-treated normal human keratinocytes; test: Real-time RT-PCR of microdust-responsive genes in microdust-treated keratinocytes treated with galangin; format: cell-based; settings: microdust 2.5 μm 12.5 μg in 1 mL, galangin 0.25-2 μM, 24 hours
Procedure: The normal human keratinocytes cultured in Example 2 were treated 12.5 μg of the microdust with a particle diameter of 2.5 μm extracted in Example 1 in 1 mL of a cell culture medium and relative mRNA expression level was measured using the primers described in Tables 5 and 6 (TaqMan® primers, Applied Biosystems).
The microdust-treated normal human keratinocytes or the normal human keratinocytes cultured in Example 2 but not treated with microdust were treated with galangin at different concentrations (0.25 μM, 0.5 μM, 1 μM and 2 μM). 24 hours later, the culture medium was removed and the cells were washed with 2 mL of phosphate-buffered saline (PBS). Then, RNA was isolated from the cells using TRIzol reagent (Invitrogen, Carlsbad, Calif., USA). For S100A8, S100A9, CYP1A1, CYP1B1, PI3, IL36G, IL1B, CCL27, IL8, NOX6, XDH, CXCL14, H19, CASP14 and CASP8, expression level was measured after treating with 0.25 μM galangin. The galangin was purchased commercially from Nanjing Chemlin Chemical (CAS No. 548-83-4). The isolated RNA was purified once again with Qiagen RNA kit Qiagen, Valencia, Calif.) and the quality of RNA was determined using Agilent 2100 BioAnalyzer (Agilent Technologies, Santa Clara, Calif., USA). cDNA synthesized from the RNA using SuperScript reverse transcriptase (RT) kit (Invitrogen, Carlsbad, Calif.) was quantitatively analyzed by real time-reverse transcription polymerase chain reaction (Q-RT-PCR) using the primers described in Tables 5 and 6. The change in gene expression pattern was evaluated in real time using TaqMan gene expression assay kit (Applied Biosystems, Foster City, Calif.). The Q-RT-PCR and real-time PCR were conducted in accordance with the standard protocols of Life Technologies, specifically, 95° C. for 20 seconds followed by 40 cycles of 95° C. for 3 seconds and 60° C. for 30 seconds.

[2] = tested on: filaggrin protein; test: Filaggrin protein expression by blotting with filaggrin antibody; format: cell-based, human; settings: galangin 0, 0.5, 1, 2 μM, 24 hours; normalized to β-actin
Procedure: The normal human keratinocytes cultured in Example 2 were treated with galangin at different concentrations (0 μM, 0.5 μM, 1 μM and 2 μM). 24 hours later, the culture medium was removed and the cells were washed with 2 mL of phosphate-buffered saline (PBS). After adding cell lysis buffer and vortexing, proteins were quantified from the obtained supernatant. The proteins obtained from the epidermis of normal skin and dry skin were loaded on SDS gel and then blotted using the filaggrin antibody (Covance, France). The quantification result was normalized to that of β-actin (Sigma, USA).

[3] = tested on: filaggrin, keratin 10, keratin 1, keratin 13 and keratin 15 mRNA in normal human keratinocytes; test: Real-time PCR of gene expression in normal keratinocytes upon treatment with galangin; format: cell-based; settings: cells not treated with microdust; galangin 0, 0.5, 1, 2 μM, 24 hours
Procedure: After treating the normal human keratinocytes cultured in Example 2 with galangin at different concentrations (0 μM, 0.5 μM, 1 μM and 2 μM), the relative mRNA expression level of filaggrin, keratin 10, keratin 1, keratin 13 and keratin 15 was measured.
24 hours after the treatment with galangin, the culture medium was removed and the cells were washed with 2 mL of phosphate-buffered saline (PBS). Then, RNA was isolated from the cells using TRIzol reagent (Invitrogen, Carlsbad, Calif., USA).
Subsequently, the change in gene expression was evaluated by real-time PCR in the same manner as in Example 5. For filaggrin, TaqMan® Hs00856927_g1 was used as the primer.

[4] = tested on: normal human keratinocytes; test: Differentiation of keratinocytes under optical microscope; format: cell-based; settings: cells not treated with microdust; galangin 0, 1, 2 μM, 24 hours
Procedure: The normal human keratinocytes cultured in Example 2 were treated with galangin at different concentrations (0 μM, 1 μM and 2 μM). 24 hours later, the culture medium was removed and the degree of differentiation of the keratinocytes was observed under an optical microscope (Olympus IX71, x40 and x200).

O=c1c(O)c(-c2ccccc2)oc2cc(O)cc(O)c12 [galangin]
expression of genes whose expression is increased in skin cells stimulated by microdust ([1]; FIGS. 2a-2k): decreased expression | expression of genes increased or decreased in skin cells stimulated by microdust ([1]; FIGS. 2 and 3): returned to the normal level | expression of genes whose expression is decreased in skin cells stimulated by microdust ([1]; FIGS. 3a-3k): increased expression | expression of filaggrin protein [2]: increased with increasing galangin concentration | relative mRNA expression level of filaggrin [3]: increased expression with increasing galangin concentration | relative mRNA expression level of keratin 1 [3]: increased expression with increasing galangin concentration | relative mRNA expression level of keratin 10 [3]: increased expression with increasing galangin concentration | relative mRNA expression level of keratin 13 [3]: increased expression with increasing galangin concentration | relative mRNA expression level of keratin 15 [3]: increased expression with increasing galangin concentration | degree of differentiation of the keratinocytes [4]: active differentiation with increasing galangin concentration
